{"source": "patent US20170360947A1", "about": "“POLYMER PARTICLES AND BIOMATERIALS COMPRISING THE SAME” (UNIVERSITE DE BORDEAUX, priority 2014, published 2017)", "key": {"[1]": {"test_system": "MRSA BCB8", "assay": "MIC determination in Mueller-Hinton broth (absorbance at 600 nm)", "assay_type": "cell-based, S. aureus", "procedure": "From a 24 h bacterial culture, MRSA BCB8 were suspended in Mueller-Hinton broth to obtain a 0.5 McF suspension, which was diluted to a final concentration of 1.10^6 CFU·ml^−1.\nThen twofold serial dilutions of chemicals were prepared (from 256 μg·ml^−1 to 0.06 μg·ml^−1) and 100 μl of MRSA BCB8 suspension were incubated with 200 μl of chemical containing solutions for 24 h at 37° C.\nAfter this time, suspension absorbances were measured at 600 nm. MICs were determined as the minimal concentration for which the lowest absorbance is observed."}, "[2]": {"test_system": "MRSA strain obtained from blood cultures", "assay": "Gentamicin susceptibility of the MRSA strain studied in vivo", "assay_type": "cell-based, S. aureus", "procedure": "Strain studied: an MRSA strain obtained from blood cultures (gentamicin MIC<0.5 μg/mL). Assessment of the animal model was realized with 10^3 CFU/mL inoculum."}}, "data": [{"molecule": "CN[C@H](CC(C)C)C(=O)N[C@H]1C(=O)N[C@@H](CC(N)=O)C(=O)N[C@H]2C(=O)N[C@H]3C(=O)N[C@H](C(=O)N[C@H](C(=O)O)c4cc(O)cc(O)c4-c4cc3ccc4O)[C@H](O)c3ccc(c(Cl)c3)Oc3cc2cc(c3O[C@@H]2O[C@H](CO)[C@@H](O)[C@H](O)[C@H]2O[C@H]2C[C@](C)(N)[C@H](O)[C@H](C)O2)Oc2ccc(cc2Cl)[C@H]1O", "note": "[Vancomycin]", "values": [{"measurement": "MIC", "setting": "[1]; Staphylococcus aureus, MRSA, 24 h", "value": 0.6, "unit": "mg/L"}]}, {"molecule": "gentamicin", "values": [{"measurement": "gentamicin MIC", "setting": "[2]", "value": "< 0.5", "unit": "mg/L"}]}, {"molecule": "α-Norbornenyl-ω-Vancomycin Poly(Ethylene Oxide) [macro Vanco]", "values": [{"measurement": "MIC", "setting": "[1]; MRSA BCB8, 24 h at 37° C., lowest absorbance at 600 nm", "value": 1.3, "unit": "mg/L"}]}]}
